Target: T1, MDM2 (Homo sapiens, UniProt Q00987)
T1 construct: MDM2 (Abcam, ab167941)
Assay: fluorescence polarization competition with FITC-p53 peptide
Type: binding
Text: fluorescence polarization competition with FITC-p53 peptide on MDM2 | analysis of the interaction of N201 with MDM2 instead of with fluorescein isothiocyanate (FITC)–p53.

T1 sequence (Q00987 whole entry): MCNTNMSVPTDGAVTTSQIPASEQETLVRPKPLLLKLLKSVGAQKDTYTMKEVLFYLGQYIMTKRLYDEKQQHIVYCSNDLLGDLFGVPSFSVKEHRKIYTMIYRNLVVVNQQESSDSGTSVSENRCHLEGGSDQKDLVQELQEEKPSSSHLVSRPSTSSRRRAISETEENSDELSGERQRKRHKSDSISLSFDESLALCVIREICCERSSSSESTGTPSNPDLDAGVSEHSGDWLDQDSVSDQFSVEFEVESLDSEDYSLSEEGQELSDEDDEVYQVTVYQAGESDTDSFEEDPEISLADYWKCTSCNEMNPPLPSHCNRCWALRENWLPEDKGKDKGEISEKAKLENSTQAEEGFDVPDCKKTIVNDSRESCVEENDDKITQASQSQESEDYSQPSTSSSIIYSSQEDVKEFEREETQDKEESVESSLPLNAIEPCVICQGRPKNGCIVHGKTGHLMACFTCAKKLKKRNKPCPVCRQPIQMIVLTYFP

| IC50 [nM] | Compound |
| --- | --- |
| 200 | COc1ccc(C2=NC(c3ccc(Cl)cc3)C(c3ccc(Cl)cc3)N2C(=O)N2CCN(CCO[C@@H]3O[C@H](CO)[C@H](O)[C@H](O)[C@H]3O)CC2)c(OC(C)C)c1 (some centres unmarked) [N201-gal] |
| 130 | COc1ccc(C2=NC(c3ccc(Cl)cc3)C(c3ccc(Cl)cc3)N2C(=O)N2CCN(CCO)CC2)c(OC(C)C)c1 (centres unmarked) [N201] |
